Reference: PubChem BioAssay AID540258 (Broad Institute, 2011)
Active and inactive are the calls of the source.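 How the source made its calls: active means fitted curve reaching 40% activation at or below the top valid dose tested; inconclusive means flat curve at 30 to 70% activation, or poor fit; inactive means the rest.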

Tested on: SK-MEL-5 TRPM1 promoter luciferase reporter, 24 h
Assay: activation of TRPM1 promoter luciferase in melanoma cells – SK-MEL-5 cells, cherry-pick samples, dose response (AID 540258);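 further: potency for activators that raise TRPM1 promoter luciferase signal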

| SMILES | AC40 |
| --- | --- |
| CCCn1ncc2c(Nc3ccc(C)c(C)c3)ncnc21 | 4.16 µM |
| COc1ccc(C(=O)c2c[nH]c3ccccc23)cc1 | 2.64 µM |
| COc1cccc(N(C(=O)c2nc3nccc(C)n3n2)c2nc3ccccc3s2)c1 | 0.495 µM |
| Cc1cc2ncc(-c3ccc(Cl)cc3)c(N)n2n1 | > 35 µM (inactive) |
| CN(C(=O)c1cc(-c2ccccc2)on1)C1CCCCC1 | 1.12 µM |
| Clc1ccc(-c2nnc(CCc3ccccc3)o2)c(Cl)c1 | 2.55 µM |
| Cc1ccc(N2NC(C)(c3cccs3)NC2=S)cc1 (centres undefined) | 1.42 µM |
| COc1cc2c(C)nc3c(cnn3-c3ccccc3)c2cc1OC | 2.87 µM |
| CCN(CC)c1ccc(-c2nc3cnccc3n2C)cc1 | 1.64 µM |
| CC(C)c1ccc(/C=N/NC(=O)C2CCCC2)cc1 | 2.44 µM |
| O=C1c2ccccc2C(=O)N1CCc1c[nH]c2ccccc12 | 2.19 µM |
| COc1ccc2oc(=O)c(C(=O)N3CCN(c4ccccc4C)CC3)cc2c1 | 8.14 µM |
| Cn1c(-c2ncc(F)cc2F)cc2onc(-c3c(F)cccc3Cl)c2c1=O | > 35 µM (inactive) |
| O=C(O)c1ccc(/C=C/c2ccc3cccc(O)c3n2)cc1 | 0.876 µM |
| O=C(N/N=C/c1ccc(Cl)cc1Cl)c1cccc(F)c1 | 1.95 µM |
| c1ccc2oc(CCc3nc4ccccc4o3)nc2c1 | > 35 µM (inactive) |
| Cc1ccc(N2C(=O)S/C(=C/c3cn(C)c4ccccc34)C2=O)cc1 | 6.5 µM |
| CC1(C)CC(/C=C/c2ccccc2)=Nc2ccccc2N1 | 20.9 µM |
| CC(C)(C)C(=O)c1cnc(Nc2ccccc2Cl)s1 | 0.832 µM |
| O=C1c2ccccc2/C(=C\C#Cc2ccccn2)N1c1ccccc1 | 3.93 µM |
| FC(F)Oc1ccc(N=C2SCC3CCCCN23)cc1 (centres undefined) | 2.53 µM |
| CCN(CC)C(=O)c1cc(-c2ccc(Br)cc2)on1 | 1.63 µM |
| Cc1nc(COC(=O)c2c(C)nn(-c3ccccc3)c2C)cs1 | 21.1 µM |
| O=Cc1ccc(OCc2ccc3ccccc3c2)cc1 | 1.4 µM |
| CCCCN1C(=O)/C(=C2\SC(N3CCCCC3)=NC2=O)c2ccccc21 | 3.23 µM |
| COc1ccc2[nH]c(-c3ccccc3)cc2c1 | 0.977 µM |

| SMILES | AC40 |
| --- | --- |
| Cc1ccc(Nc2ncc3c(n2)CC(C)(C)CC3=O)cc1 | 0.65 µM |
| CS(=O)(=O)N1N=C(c2ccc(Br)cc2)CC1c1ccc2c(c1)OCO2 (centres undefined) | 2.95 µM |
| COc1ccc(/C(N)=N/OC(=O)c2cccs2)cc1OC | 6.41 µM |
| Cc1noc(N)c1C(=O)Nc1ccc(C(C)(C)C)cc1 | 1.66 µM |
| N#Cc1cc(C#N)c(N2CCN(c3ccccn3)CC2)nc1N | 4.47 µM |
| CN(N=O)c1ccc(CC2CCc3ccccc32)cc1 (centres undefined) | 12.6 µM |
| Cc1ccc(NC(=O)C(=O)NCc2ccccn2)cc1 | 16.4 µM |
| COc1ccccc1C(=O)NCC(=O)Nc1ccc2c(c1)CCC2 | 2.42 µM |
| CCN1CCN(c2cc3c(nn2)Oc2ccccc2N3C)CC1 | 5.84 µM |
| Cc1ccc(Nc2nc(Cl)nc(NC(C)(C)C)n2)cc1 | 3.69 µM |
| O=c1c2ccccc2oc2cc(-c3ccc4cc[nH]c4c3)ccc12 | 2.25 µM |
| COc1cccc(NC(=O)C(=O)NCCC2CCCCN2S(=O)(=O)c2cccs2)c1 (centres undefined) | 4.24 µM |
| CCc1ccc(NC(=O)c2ccc3nc(N)sc3c2)cc1 | 5.39 µM |
| Cc1cc(CNC(=O)c2cc(COc3ccc(F)c(F)c3)on2)nn1C | 3.37 µM |
| CC(C)(C)C(=O)N1CCN(c2nc3ccccc3s2)CC1 | 1.86 µM |
| Cc1ccnc(NC(=O)c2ccc(S(=O)(=O)N3CCC(C)CC3)cc2)c1 | 7.76 µM |
| CC(=O)Nc1cccc(-c2nc3ccc(NC(C)=O)cc3s2)c1 | 1.29 µM |
| CCCCN1CCc2c([nH]c3c(C)cccc23)C1=O | > 35 µM (inactive) |
| Cc1nn2cc(-c3ccc(Cl)cc3)cnc2c1Cl | 8.04 µM |
| Cc1cccc(-c2noc(Cc3ccccc3)n2)c1 | 2.93 µM |
| Cc1nc(C(C)NC(=O)CCc2nnc(CCCc3ccccc3)o2)c(C)s1 (centres undefined) | 3.83 µM |
| c1ccc2c(c1)NC1(CCCC1)n1c-2nc2ccccc21 | 11.3 µM |
| Nc1c(C(=O)C2CC2)sc2nc3c(cc12)CCC3 | 1.92 µM |
| COc1ccccc1N1CCN(/N=C/c2cccc(Cl)c2)CC1 | 1.45 µM |
| COc1ccc2c(c1)CCc1c(C(=O)NCC(C)C)noc1-2 | 0.867 µM |
| O=C(Nc1ccccc1Cl)c1ccc2nccnc2c1 | 4.21 µM |

| SMILES | AC40 |
| --- | --- |
| N#Cc1c(-c2ccc(Cl)cc2)ccn2nc(C3CCCCC3)nc12 | 2.4 µM |
| O=C(O)c1cc(-c2ccc(-c3c(-c4ccc5c(c4)OCO5)noc3-c3ccsc3)cc2)nc2ccccc12 | 20.3 µM |
| COC(=O)c1ccc(-c2ccc(Cl)cc2)nc1C | 0.475 µM |
| CC(NS(=O)(=O)c1cccc(Cl)c1)C(=O)Nc1ccc(-c2nc3ccccc3s2)cc1 (centres undefined) | 6.96 µM |
| CCc1nc(NC(C)(C)C)c2cnn(-c3ccccc3)c2n1 | 6.25 µM |
| Clc1ccc(-c2nc(C3CCCCC3)no2)cc1 | 1.23 µM |
| O=C(Nc1cccnc1)c1cc(-c2ccc(Cl)cc2)on1 | 15.3 µM |
| O=C(Nc1ccccc1)Nc1ccc2nnsc2c1 | 13.1 µM |
| COc1ccc(C2=NN(c3ccccc3)C(c3ccc(OC)c(OC)c3)C2)cc1 (centres undefined) | 25.6 µM |
| O=C(NCCC1=CCCCC1)c1ccc(-n2cncn2)cc1 | 5.08 µM |
| CCC(C)NC(=O)c1cc(-c2ccc(OC)cc2)on1 (centres undefined) | 0.773 µM |
| C/C(Cl)=C/CSc1nn2c(=O)c3ccccc3nc2s1 | 13 µM |
| O=C(N/C=C/c1ccccc1)c1ccccc1 | 0.551 µM |
| Cc1ccc(/C=N/N2C(=O)c3ccccc3NC2c2ccc(C)cc2)cc1 (centres undefined) | 20.5 µM |
| Nc1ccccc1N=Nc1ccccc1N | 27 µM |
| COC(=O)c1ccc(/C=N/Nc2nc(C)c(C)s2)cc1 | 1.5 µM |
| Clc1ccc(-c2cn3c(n2)CCC3)cc1 | > 35 µM (inactive) |
| CCCc1nc2ccc(NC(C)=O)cc2c(=O)n1Cc1ccc(Cl)cc1 | 2.92 µM |
| C=CCc1c(C)nc(-c2ccccc2)nc1N/N=C/c1ccncc1 | 7.06 µM |
| CC1(C)CC(=O)c2c(O)cc(OCc3ccc(Br)cc3)cc2O1 | 1.33 µM |
| CCc1cccc(NC(=O)c2sc3nc4n(c(=O)c3c2C)CCC4)c1 | 4.55 µM |
| Cc1ccc(Nc2cc(C)c3c(O)cccc3n2)cc1C | 3.4 µM |
| COC(=O)Cc1ccc(OCc2ccc(Cl)nc2)cc1 | 4.13 µM |
| CCc1ccc(-c2cn3nc(-c4ccccc4)cnc3n2)cc1 | > 35 µM (inactive) |
| Oc1oc(-c2ccccc2)nc1C=NCc1ccccc1 | 11.3 µM |
| CC(C)(C)c1cc(NC(=O)Nc2ccccc2)no1 | 0.864 µM |

| SMILES | AC40 |
| --- | --- |
| O=C1CCCc2nc3c(cc21)C(O)Oc1c-3ccc2ccccc12 (centres undefined) | 1.52 µM |
| CCN(CC)C(=O)c1cc2sc3ccccc3c2s1 | 2.42 µM |
| O=C1C(=O)N(c2ccccc2)P(=O)(N(CCCl)CCCl)N1c1ccccc1 | 16.1 µM |
| COC(=O)c1cc(-c2ccc(OC)cc2)n[nH]1 | 6.21 µM |
| CC(=O)c1ccc(NC(=O)Nc2ccc3c(c2)nc(C)n3C)cc1 | 31.2 µM |
| C/C(=N\OCc1ccc(C#N)cc1)c1ccc(S(=O)(=O)N(C)C)cc1 | > 35 µM (inactive) |
| CCS(=O)(=O)Nc1ccc(C(=O)NCCSc2ccccc2)cc1 | 34.6 µM |
| c1ccc(-c2cnnc(N3CCCCC3)n2)cc1 | 0.992 µM |
| Cc1cccc2c1-c1sc(C(=O)N3CCCCC3)cc1CO2 | 2.7 µM |
| Brc1csc(/C=N/Nc2nc3ccccc3s2)c1 | 0.667 µM |
| Clc1ccc(COn2nnc3ccccc32)c(Cl)c1 | 0.941 µM |
| CC(C)C(=O)Nc1cccc(-c2cnc3ccccc3n2)c1 | 17.3 µM |
| CCCCNC(=O)c1cc2ccccc2s1 | 31 µM |
| O=S(=O)(Cc1cc(-c2ccccc2Cl)no1)c1ccccc1 | 9.76 µM |
| Nc1ccc(-c2nc3ncccc3o2)c(O)c1 | 5.79 µM |
| CN(C(=O)c1cc2sccc2n1C)C1CCCCC1 | > 35 µM (inactive) |
| CNC(=O)C(=O)Nc1nc(C23CC4CC(CC(C4)C2)C3)cs1 | 16.6 µM |
| COc1nc(C)ccc1-c1noc(-c2ccncc2)n1 | 2.67 µM |
| Cc1ccsc1/C=N/NC(=O)Nc1ccccc1 | 1.07 µM |
| COc1ccc(Oc2nnc(C)c3ccccc23)cc1 | 2.6 µM |
| CCn1c(C(=O)NC2CCC(C)CC2)cc2sccc21 (centres undefined) | 8.36 µM |
| C(=C\c1nnc(-c2cccs2)o1)/c1ccccc1 | 0.734 µM |
| O=C(N/N=C/c1ccsc1)c1ccc2c(c1)OCO2 | 3.33 µM |
| C/C(=N\OC(=O)Nc1ccccc1)c1ccc(C)cc1 | 3.45 µM |
| CN(CCC#N)C(=O)c1cc2c(s1)-c1ccccc1SC2 | 3.23 µM |
| Cc1nn(-c2ccccn2)c2c1-c1nc(N)ncc1CC2 | 2.38 µM |

| SMILES | AC40 |
| --- | --- |
| NC(=O)c1cnn(-c2cc(Oc3ccccc3)ncn2)c1N | 2.88 µM |
| COc1ccc(-c2ccc3ccccc3n2)cc1OC | 1.38 µM |
| Cc1ccc(-n2nnc3ccccc3c2=O)cc1C | 2.62 µM |
| COc1ccc(C(=S)Nc2ccc(C)cc2)cc1 | 2.65 µM |
| CCc1ccc(O)c(-c2cc(C(=O)Nc3cccnc3)[nH]n2)c1 | 2.44 µM |
| Nc1ccc2oc(-c3cccs3)nc2c1 | 4.75 µM |
| c1ccc(Cc2cc(-c3ccccc3)on2)cc1 | 2.58 µM |
| COc1ccc2c(c1OC)C(=O)OC2Nc1nc(-c2cc3cc(Br)ccc3oc2=O)cs1 (centres undefined) | 0.915 µM |
| COC(=O)c1ccc2[nH]c(C3(O)CCCCC3)c(C)c2c1 | 10.3 µM |
| Cc1nc(SCc2ccccc2)nc2c1CCC2 | 2.58 µM |
| Cc1ccnc(NC(=O)C2CC(=O)N(Cc3ccccc3)C2)c1 (centres undefined) | 5.34 µM |
| Oc1nc(Nc2ccccc2)sc1/C=C1\C=Nc2ccccc21 | 9.81 µM |
| Nc1nc(COc2ccc3ccccc3c2)cs1 | 4.97 µM |
| COc1cccc2sc3ccc(C#CC4(O)CCCCC4)cc3c(=O)c12 | 2.94 µM |
| COc1ccc(C(=O)CN2Cc3ccccc3C2=N)cc1 | 4.86 µM |
| FC(F)(F)c1ccnc(Oc2ccc(C3=NCCS3)cc2)c1 | 0.654 µM |
| CCc1ccc(NC(=O)c2cc(-c3cccs3)on2)cc1 | 12.3 µM |
| COc1ccc(-c2cc3nc4ccccc4n3c(N)c2C#N)cc1 | 1.83 µM |
| CCn1c(C(=O)OC)cc2c1ccn2-c1ccc(F)cc1 | 2.94 µM |
| COc1ccc(-c2csc(N(C)C(=O)c3cccs3)n2)cc1 | 6.73 µM |
| N/C(=N\OC(=O)C1CCCCC1)c1cccc(Br)c1 | 13.5 µM |
| CC(=O)N1N=C(c2ccc(C)cc2)OC1c1ccc(Br)cc1 (centres undefined) | 2.83 µM |
| CCCCN(C(=O)Cc1cccs1)c1nnc(-c2cccnc2)s1 | 5.05 µM |
| COc1ccc(-c2c(C)nc3c(-c4ccsc4)cnn3c2N)cc1 | 0.302 µM |
| Clc1ccc(-c2ccc(SCc3ccccn3)nn2)cc1 | 2.39 µM |
